One assay concerns CUMS mice. As to the kind of experiment: Tail suspension test (TST) in CUMS mice. Type of assay: in vivo, mouse. The protocol: C57BL/6 adult (6–8 weeks, body weight, 18–22 g) male mice were maintained and handled in a standard condition at the Experimental Animal Center of Southern Medical University (Guangzhou, China). Animal use was approved by the Animal Use and Care Committee of Southern Medical University (approved code: SMUL2021177, approved date: 12 December 2021). The CUMS procedure was carried out according to a protocol described previously. Except for those in the control group, mice were randomly exposed to two mild unpredictable stressors per day for 3 weeks. The stressors included water deprivation, restraint, tilted cage, wet/no bedding, rotation, peppermint, noise, and inverted light off/on. Mice in the control group were group housed without any stressors throughout the procedure. […] NSFT was performed after 16 h food deprivation, as described previously. The mouse was placed in an open field (24 × 40 × 14 cm), where a new chow was put in the center, and the latency time to bite food was counted over 10 min. Home cage feeding within a 20 min period was measured after the test. FST was carried out according to a protocol described previously. The mouse was placed into a beaker (Bomex, Beijing, China) with a height of 18 cm filled with water (22 ± 1 °C) for 6 min. The immobile time was measured during minutes 2–6. TST was performed according to a previous description. The mouse was suspended from a hook that hung from a suspension bar by placing a piece of adhesive tape on its tail about 1 cm away from the tip. The immobile time during minutes 2–6 was measured.

In another assay the target is T1, hSERT Y95F (Homo sapiens, UniProt P31645, Y95F).
T1 construct: forward and reverse primers were used to amplify a full-length hSERT; expressed in transfected cells; host or cells: HeLa
T1 sequence (P31645 whole entry Y95F): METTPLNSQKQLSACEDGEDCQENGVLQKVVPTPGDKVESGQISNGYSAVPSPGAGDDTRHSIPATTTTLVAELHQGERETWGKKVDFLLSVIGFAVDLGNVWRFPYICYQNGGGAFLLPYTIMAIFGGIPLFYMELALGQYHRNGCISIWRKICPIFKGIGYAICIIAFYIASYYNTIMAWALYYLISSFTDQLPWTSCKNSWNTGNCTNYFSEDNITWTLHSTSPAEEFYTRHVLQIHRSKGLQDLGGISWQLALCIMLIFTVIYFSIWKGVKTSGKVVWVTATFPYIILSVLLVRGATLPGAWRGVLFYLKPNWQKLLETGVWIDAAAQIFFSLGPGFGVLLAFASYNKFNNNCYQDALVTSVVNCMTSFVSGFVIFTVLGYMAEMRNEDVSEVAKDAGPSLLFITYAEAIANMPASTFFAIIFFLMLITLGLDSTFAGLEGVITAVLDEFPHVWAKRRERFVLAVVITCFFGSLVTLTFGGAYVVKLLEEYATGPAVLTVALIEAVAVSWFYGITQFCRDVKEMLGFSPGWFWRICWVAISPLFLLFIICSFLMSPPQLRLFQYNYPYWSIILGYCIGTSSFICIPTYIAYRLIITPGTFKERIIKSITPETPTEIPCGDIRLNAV
The assay can be described thus: APP^+ uptake, hSERT Y95F. Type of assay: cell-based. The following applies: S1 site mutant, read-out: SYR IC50 for Transport. On the procedure:
HeLa cells were cultured in Dulbecco’s Modified Eagle’s Medium supplemented with 10% fetal bovine serum, 100 units/mL penicillin, and 100 μg/mL streptomycin at 37 °C in a humidified 5% CO2 incubator. Cells grown at ~70% confluence in a 6 cm culture dish were transfected with hSERT cDNA in pcDNA3.1 by lipofectamine 2000. Transfected cells were incubated for 12 h at 37 °C with 5% CO2 and then transferred into 96-well plates. After being grown for an additional 12–16 h, the cells were then assayed for APP^+ uptake or ASP^+ binding.
Measurement of transport or ligand binding activity of SERT was performed by using its fluorescent substrate (APP^+) or ligand (ASP^+), respectively. The cells transiently expressing WT or mutants of hSERT were applied for various treatments. Briefly, the cells were washed twice with 100 μL KRH buffer containing 20 mM HEPES (Neofroxx, Einhausen, Germany), pH 7.4, 120 mM NaCl, 1.3 mM KCl, 2.2 mM CaCl2, 1.2 mM MgSO4, and 0.1% (w/v) glucose. APP^+ uptake was measured by adding 100 μL KRH buffer containing 2 μM APP^+ and incubating for 5 min at 22 °C. Excess APP^+ was then removed by 3× rapid washing with 100 μL KRH buffer each time. The extent of APP^+ accumulated in the cells was determined by fluorescence spectrometry with an Infinite 200 Pro microplate reader (Tecan, Männedorf, Switzerland). […]

The subject of assay [1] is BDNF, PSD-95, GluA1, and vGluT1. As to the kind of experiment: Immunoblot of synaptic proteins in hippocampus of CUMS mice. Type of assay: in vivo, mouse. The following applies: same dosage as fluoxetine (10 mg/kg i.p.). The text has this:
(§1) Figure 8 SYR effects on the expression of c-Fos and synaptic proteins in the hippocampus. (A) Representative immunohistochemical images of c-Fos expression in the hippocampus with the indicated treatments. (B) Quantitative analysis for hippocampal c-Fos expression with various treatments. Protein expression level is expressed as a percentage of c-Fos fluorescence measured in the control group. Bars represent the mean ± SEM (n = 4). ** p < 0.01 compared with the control or CUMS group by one-way ANOVA followed by post hoc tests. (C) Representative immunoblots of the synaptic proteins BDNF, PSD-95, GluA1, and vGluT1 with various treatments. (D–G) Quantification of the expression of synaptic proteins BDNF (D), PSD-95 (E), GluA1 (F), and vGluT1 (G). The expression level is expressed as a percentage of the integrated density obtained from the control group. Bars represent the mean ± SEM (n = 4). * p < 0.05, ** p < 0.01 by one-way ANOVA followed by post hoc tests.
Synaptic proteins were extracted from mPFC or hippocampus tissues using RIPA lysis buffer, respectively. Expression of the indicated proteins under various treatments was then analyzed by immunoblotting, as previously reported. […] Quantification of immunoreactive protein bands was performed using Image J v1.53u, and GAPDH was used as an internal reference to normalize expression levels of those proteins, respectively.

A further assay concerns c-Fos. As to the kind of experiment: c-Fos immunohistochemistry in hippocampus of CUMS mice. Type of assay: in vivo, mouse. The following applies: same dosage as fluoxetine (10 mg/kg i.p.).
Description: as §1
Mouse mPFC and hippocampal slices were prepared as previously described. Briefly, mice were deeply anesthetized with 4% pentobarbital sodium (Sigma-Aldrich, Saint Louis, MI, USA), and perfused transcardially with PBS, followed by 4% phosphate-buffered paraformaldehyde. […]

In the next assay the target is T2, hSERT I327A (Homo sapiens, UniProt P31645, I327A).
T2 construct: forward and reverse primers were used to amplify a full-length hSERT; expressed in transfected cells; host or cells: HeLa cells, transient, pcDNA3.1
T2 sequence (P31645 whole entry I327A): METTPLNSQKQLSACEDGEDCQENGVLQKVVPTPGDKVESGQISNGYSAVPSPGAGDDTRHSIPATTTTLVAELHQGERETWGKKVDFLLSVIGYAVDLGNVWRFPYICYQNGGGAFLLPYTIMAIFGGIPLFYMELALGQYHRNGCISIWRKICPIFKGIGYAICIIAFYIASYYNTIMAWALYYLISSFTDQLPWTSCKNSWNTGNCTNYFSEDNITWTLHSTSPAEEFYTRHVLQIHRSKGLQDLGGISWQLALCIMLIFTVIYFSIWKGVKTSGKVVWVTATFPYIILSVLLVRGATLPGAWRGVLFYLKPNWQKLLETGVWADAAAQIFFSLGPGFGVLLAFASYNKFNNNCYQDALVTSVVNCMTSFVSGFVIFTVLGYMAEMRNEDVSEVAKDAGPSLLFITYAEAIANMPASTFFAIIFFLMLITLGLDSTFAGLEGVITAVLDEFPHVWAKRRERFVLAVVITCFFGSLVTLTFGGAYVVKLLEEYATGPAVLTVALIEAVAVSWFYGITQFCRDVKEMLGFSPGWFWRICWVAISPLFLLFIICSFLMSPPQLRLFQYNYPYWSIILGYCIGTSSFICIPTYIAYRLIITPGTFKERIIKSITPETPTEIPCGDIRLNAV
The assay can be described thus: ASP^+ binding, hSERT I327A. The conditions noted are these: S2 site mutant, read-out: SYR IC50 for Binding.

A word on the IC50: it is the concentration that gives 50% inhibition. In the case of `COc1cc([C@@H]2OC[C@@H]3[C@H]2CO[C@H]3c2cc(OC)c(O)c(OC)c2)cc(OC)c1O` [SYR, (-)-syringaresinol], in the assay with CUMS mice (5 mg/kg, i.p., once per day day 7 to 21), the “CUMS-induced increase in immobility time in TST” value is recorded as “effectively attenuate”. The “effect in TST” value in the assay with CUMS mice (10 or 20 mg/kg (i.p.)) was “remarkable antidepressant-like effects”. Also, the IC50 at hSERT Y95F was 2.64 ± 0.12 µM; at hSERT I327A, 53.2 ± 7.01 µM. Further, in assay [1], the “CUMS-induced decrease in expression of synaptic proteins in the hippocampus” value is listed as “effectively alleviate”. In the assay with c-Fos, the “CUMS-induced decrease in expression of c-Fos in the hippocampus” value was “effectively alleviate”.
